From patent publication US4413007A, “Pesticidal symmetrical N-substituted bis-carbamoyloximino disulfide compounds” (priority 1978, dated 1983)

Key:
Type in all cases: in vivo
Design in all cases: key: A: excellent control; B: partial control; C: no control
[1] = test system: bean aphid (Aphis fabae Scop.); experiment: Bean Aphid Foliage Spray Test; conditions: 500 ppm, 24 hour holding period
Procedure: (§1) Suspensions of the test compounds were prepared by dissolving one gram of compound in 50 milliliters of acetone in which had been dissolved 0.1 gram (10 percent of the weight of compound) of an alkylphenoxy polyethoxyethanol surfactant, as an emulsifying or dispersing agent. The resulting solution was mixed into 150 milliliters of water to give roughly 200 milliliters of a suspension containing the compound in finely divided form. The thus-prepared stock suspension contained 0.5 percent by weight of compound. The test concentrations in parts per million by weight employed in the tests described hereinbelow were obtained by appropriate dilutions of the stock suspension with water. The test procedures were as follows:
Adults and nymphal stages of the bean aphid (Aphis fabae Scop.) reared on potted dwarf nasturtium plants at 65°-70° F. and 50-70 percent relative humidity, constituted the test insects. For testing purposes, the number of aphids per pot was standardized to 100-150 by trimming plants containing excess aphids.
The test compounds were formulated by diluting the stock suspension with water to give a suspension containing 500 parts of test compound per million parts of final formulation.
The potted plants (one pot per compound tested) infested with 100-150 aphids, were placed on a revolving turntable and sprayed with 100-110 milliliters of test compound formulation by use of a DeVilbiss spray gun set at 40 psig. air pressure. This application, which tested 25 seconds, was sufficient to wet the plants to run-off. As a control, 100-110 milliliters of a water-acetone-emulsifier solution containing no test compound were also sprayed on infested plants. After spraying, the pots were placed on their sides on a sheet of white standard mimeograph paper which had been previously ruled to facilitate counting. Temperature and humidity in the test room during the 24 hour holding period were 65°-70° F. and 50-70 percent, respectively. Aphids which fell onto the paper and were unable to remain standing after being uprighted were considered dead. Aphids remaining on the plants were observed closely for movement and those which were unable to move the length of the body upon stimulation by prodding were considered dead. Percent mortality was recorded for various concentration levels.
(§2) In these tests the pesticidal activity of the compounds against aphid, mite, Southern Armyworm, Bean Beetle and house fly was rated as follows: […]

[2] = test system: southern armyworm (Prodenia eridania, (Cram.)); experiment: Southern Armyworm Leaf Spray Test; conditions: 500 ppm, three days
Procedure: as §1
Larvae of the southern armyworm (Prodenia eridania, (Cram.)), reared on Tendergreen bean plants at a temperature of 80±5° F. and a relative humidity of 50±5 percent, constituted the test insects.
The test compounds were formulated by diluting the stock suspension with water to give a suspension containing 500 parts of test compound per million parts of final formulation. Potted Tendergreen bean plants of standard height and age were placed on a revolving turntable and sprayed with 100-110 milliliters of test compound formulation by use of a DeVilbiss spray gun set at 10 psig air pressure. This application, which tested 25 seconds, was sufficient to wet plants to run-off. As a control, 100-110 milliliters of a water-acetone-emulsifier solution containing no test compound were also sprayed on infested plants. When dry, the paired leaves were separated and each one was placed in a 9 centimeter Petri dish lined with moistened filter paper. Five randomly selected larvae were introduced into each dish and the dishes were closed. The closed dishes were labeled and held at 80°-85° F. for three days. Although the larvae could easily consume the whole leaf within twenty-four hours, no more food was added. Larvae which were unable to move the length of the body, even upon stimulation by prodding, were considered dead. Percent mortality was recorded for various concentration levels.
as §2

[3] = test system: Mexican bean beetle (Epilachna varivestis, Muls.); experiment: Mexican Bean Beetle Leaf Spray Test; conditions: 500 ppm, three days
Procedure: as §1
Fourth instar larvae of the Mexican bean beetle (Epilachna varivestis, Muls.), reared on Tendergreen bean plants at a temperature of 80±5° F. and 50±5 percent relative humidity, were the test insects.
The test compounds were formulated by diluting the stock suspension with water to give a suspension containing 500 parts of test compound per million parts of final formulation. Potted Tendergreen bean plants of standard height and age were placed on a revolving turntable and sprayed with 100-110 milliliters of test compound formulation by use of a DeVilbiss spray gun set at 10 psig air pressure. The application, which lasted 25 seconds, was sufficient to wet plants to run-off. As a control, 100-110 milliliters of a water-acetone-emulsifier solution containing no test compound were also sprayed on infested plants. When dry, the paired leaves were separated and each was placed in a 9 centimeter Petri dish lined with moistened filter paper. Five randomly selected larvae were introduced into each dish, and the dishes were closed. The closed dishes were labeled and held at a temperature of 80±5° F. for three days. Although the larvae could easily consume the leaf within 24 to 48 hours, no more food was added. Larvae which were unable to move the length of the body, even upon stimulation, were considered dead.
as §2

[4] = test system: house flies (Musca domestica, L.); experiment: Fly Bait Test; conditions: 500 ppm in sugar solution, twenty four hours
Procedure: as §1
Four to six day old adult house flies (Musca domestica, L.) reared according to the specifications of the Chemical Specialities Manufacturing Association (Blue Book, McNair-Dorland Co., N.Y. 1954; pages 243-244, 261) under controlled conditions of 80±5° F. and 50±5 percent relative humidity, were the test insects. The flies were immobilized by anesthetizing with carbon dioxide and twenty five immobilized individuals,males and females, were transferred to a cage consisting of a standard food strainer about five inches in diameter which was inverted over a wrapping-paper-covered surface. The test compounds were formulated by diluting the stock suspension with a 10 percent (by weight) sugar solution to give a suspension containing 500 parts of test compound per million parts of final formulation, by weight. Ten milliliters of the test formulation were added to a souffle cup containing a one-inch square of an absorbent cotton pad. This bait cup was introduced and centered on the blotting paper under the food strainer prior to admitting the anesthetized flies. The caged flies were allowed to feed on the bait for twenty four hours, at a temperature of 80±5° F. and the relative humidity of 50±5 percent.
as §2

CN(SSN(C)C(=O)ON=C1CSCCS1)C(=O)ON=C1CSCCS1 [N,N'-Bis-[1,4-Dithiane-2-O-(N-methylcarbamoyl)oximino]disulfide]
A: Bean Aphid control rating [1] | Southern Armyworm control rating [2] | Mexican Bean Beetle control rating [3] | House-Fly control rating [4]

CC(=NOC(=O)N(C)SSN(C)C(=O)ON=C(C)SCCC#N)SCCC#N [N,N'-Bis-[1-(2-Cyanoethylthio)acetaldehyde O-(N-methylcarbamoyl)oxime]disulfide]
A: Bean Aphid control rating [1] | Southern Armyworm control rating [2] | Mexican Bean Beetle control rating [3] | House-Fly control rating [4]

CSC(C)=NOC(=O)N(C)SSN(C)C(=O)ON=C(C)SC [N,N'-Bis-[1-Methylthioacetaldehyde O-(N-methylcarbamoyl)oxime]disulfide]
A: Bean Aphid control rating [1] | Southern Armyworm control rating [2] | Mexican Bean Beetle control rating [3] | House-Fly control rating [4]
